Key:
[1] = molecular target: T1, GDP-loaded KRAS4b (amino acids 1-169) G12C/C118S protein (Homo sapiens, UniProt P01116, C118S/G12C); test: Covalent cysteine 12 modification by MALDI-TOF MS, GDP-loaded KRAS G12C; format: binding; details: 15 minutes reaction time point
T1 construct: KRAS4b (amino acids 1-169) G12C/C118S protein; made in house
In short: (§1)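 KRAS4b 1-169 G12C/C118S loaded with GDP, GppNHp or GTP was used at 1 μM in 20 mM HEPES, 150 mM NaCl, 1 mM MgCl2, pH 7.3, and incubated with compound (5 mM DMSO stock) at room temperature in the dark. % modification at 15 min is adduct peak height over total protein peak heights by linear-mode MALDI-TOF.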

[2] = molecular target: T2, GppNHp-loaded KRAS4b (amino acids 1-169) G12C/C118S protein (Homo sapiens, UniProt P01116, C118S/G12C); test: Covalent cysteine 12 modification by MALDI-TOF MS, GppNHp-loaded KRAS G12C; format: binding; details: 15 minutes reaction time point
T2 construct: KRAS4b (amino acids 1-169) G12C/C118S protein; made in house
In short: as §1

[3] = molecular target: T3, Avi-KRAS G12C (1-169) GppNHp/RAF1 RBD-3×FLAG (52-151) (Homo sapiens, UniProt P01116, G12C); test: Raf1 RBD-KRAS G12C-GppNHp disruption (protein:protein interaction HTRF assay); format: biochemical
T3 construct: Avi-KRAS G12C (1-169) GppNHp/RAF1 RBD-3×FLAG (52-151)
In short: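 HTRF measuring disruption of 50 nM Avi-KRAS G12C (1-169) loaded with GppNHp binding RAF1 RBD-3×FLAG (52-151), in pH 7.5 Tris buffer with 5 mM MgCl2, 0.1% BSA, 10% DMSO. KRAS preincubated with compound 1 h, then RBD 1 h, then detection reagents 1 h, all at room temperature. Compound titration 30-0.02 μM; activity expressed as percent of DMSO control.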

[4] = system: pERK in NCI-H358 cells; test: Cell-based pERK HTRF assay; details: Homo sapiens, NCI-H358, 0.5 h, 30 min incubation, read-out: pERK in NCI-H358 cell inhibition IC50
In short: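 Cells seeded at 4×10^4/well in RPMI with 10% FBS, then next day treated for 30 min with a 9-point, 3-fold series from 75 μM top concentration at 0.25% DMSO. Lysates were read for pERK by HTRF (d2/Eu cryptate antibodies) after 4–24 h at room temperature, emission at 615 nm.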

[5] = molecular target: T4, GTP-loaded KRAS4b (amino acids 1-169) G12C/C118S protein (Homo sapiens, UniProt P01116, C118S/G12C); test: Covalent cysteine 12 modification by MALDI-TOF MS, GTP-loaded KRAS G12C; format: binding; details: 15 minutes reaction time point
T4 construct: KRAS4b (amino acids 1-169) G12C/C118S protein; made in house
In short: as §1

GDP-KRAS G12C percent of modification [1]	GppNHp-KRAS G12C percent of modification [2]	IC50 [3]	IC50 [4]	GTP-KRAS G12C percent of modification [5]	SMILES
B (50≤percent of modification <70%)	D (percent of modification <10%)	5000 to 20000 nM	100 to 1000 nM	D (percent of modification <10%)	C=CC(=O)N1CC[C@@H](Oc2nc(OC[C@@]34CCCN3C[C@H](F)C4)nc3cc(-c4ccc(F)c5sc(N)c(C#N)c45)c(C#N)cc23)[C@@H]1C [Compound 120]
C (10%≤modification <50%)	C (10%≤modification <50%)	≤ 500 nM	100 to 1000 nM	D (percent of modification <10%)	C=CC(=O)N1CC[C@@H](Oc2nc(OC[C@@]34CCCN3C[C@H](F)C4)nc3c(F)c(-c4ccc(F)c5sc(N)c(C#N)c45)c(Cl)cc23)[C@@H]1C [Compound 121]
C (10%≤modification <50%)	D (percent of modification <10%)	> 20000 nM	> 1000 nM	D (percent of modification <10%)	C=CC(=O)N1CC[C@@H](Oc2nc(OC[C@@]34CCCN3C[C@H](F)C4)nc3cc(-c4ccc(F)c5sc(N)c(C#N)c45)c(F)cc23)[C@@H]1COC [Compound 122]
B (50≤percent of modification <70%)	C (10%≤modification <50%)	≤ 500 nM	≤ 100 nM	D (percent of modification <10%)	C=CC(=O)N1CC[C@@H](Oc2nc(OC[C@@]34CCCN3C[C@H](F)C4)nc3c(F)c(-c4ccc(F)c5sc(N)c(C#N)c45)c(C(F)(F)F)cc23)[C@@H]1C [Compound 123]
B (50≤percent of modification <70%)	D (percent of modification <10%)	500 to 5000 nM	100 to 1000 nM	D (percent of modification <10%)	C=CC(=O)N1CC[C@@H](Oc2nc(OC[C@@]34CCCN3C[C@H](F)C4)nc3c(Cl)c(-c4ccc(F)c5sc(N)c(C#N)c45)ncc23)[C@@H]1C [Compound 124]
C (10%≤modification <50%)	D (percent of modification <10%)	> 20000 nM	> 1000 nM	D (percent of modification <10%)	C=CC(=O)N1CC[C@@H](Oc2nc(OC[C@@]34CCCN3C[C@H](F)C4)nc3c(F)c(-c4ccc(F)c5sc(N)c(C#N)c45)ccc23)[C@@H]1COC [Compound 125]
A (percent of modification ≥70%)	D (percent of modification <10%)	500 to 5000 nM	100 to 1000 nM	D (percent of modification <10%)	C=CC(=O)N1CC[C@@H](Oc2nc(OC[C@@]34CCCN3C[C@H](F)C4)nc3c(F)c(-c4ccc(F)c5sc(N)c(C#N)c45)c(Cl)cc23)[C@@H]1COC [Compound 126]
B (50≤percent of modification <70%)	D (percent of modification <10%)	≤ 500 nM	100 to 1000 nM	D (percent of modification <10%)	C=CC(=O)N1CC[C@@H](Oc2nc(OC[C@@]34CCCN3C[C@H](F)C4)nc3c(F)c(-c4ccc(F)c5sc(N)c(C#N)c45)c(C(F)(F)F)cc23)[C@@H]1COC [Compound 127]
C (10%≤modification <50%)	D (percent of modification <10%)	> 20000 nM	> 1000 nM	D (percent of modification <10%)	C=CC(=O)N1CC[C@@H](Oc2nc(OC[C@@]34CCCN3C[C@H](F)C4)nc3cc(-c4ccc(F)c5sc(N)c(C#N)c45)c(C#N)cc23)[C@@H]1COC [Compound 128]
B (50≤percent of modification <70%)	A (percent of modification ≥70%)	≤ 500 nM	100 to 1000 nM	C (10%≤modification <50%)	C=CC(=O)N1CC[C@@H](Oc2nc(OC[C@@]34CCCN3C[C@H](F)C4)nc3c(Cl)c(-c4ccc(F)c5sc(N)c(C#N)c45)ncc23)[C@@H]1COC [Compound 129]
